Results from publication PMC12845078 (Pharmaceuticals, 2025).
Marks after values point to notes of the source that are not given here.

Experiments:
[1] = Pharmacokinetics of MT, 6-HMT and CBD in beagles after oral administration; conditions: beagles, p.o.
Experimental: Twelve male healthy adult beagles (weighing 10 ± 2 kg) were randomly divided into two groups. […] The drugs were dissolved in a physiological saline solution containing 5% castor oil, with an administration volume of 2 mL/kg. Blood samples were collected at the time points of pre-administration and 0.083, 0.25, 0.5, 0.75, 1, 1.5, 2, 4, 6, 8, and 12 h post-administration.
(§1) The column temperature was set at 40 °C.

[2] = Pharmacokinetics of MT, 6-HMT and CBD in SD rats (i.v. and oral); conditions: rats
Experimental: The drugs were dissolved in the same manner as described previously, with an administration volume of 5 mL/kg for all groups. Blood samples were collected at the time points of pre-administration and 0.033 (only for the intravenous administration group), 0.083, 0.25, 0.5, 0.75, 1, 1.5, 2, 4, 6, 8, and 12 h post-administration.
as §1

[3] = Pharmacokinetics of MT and CBD in rats after pre-administration of ABT; conditions: both groups after ABT co-administration, all sampling time points; below lower limit of quantification
Experimental: Twelve SD rats were randomly divided into two groups. Both groups were first given an intragastric administration of 1-aminobenzotriazole (ABT) at a dose of 200 mg/kg. […] The administration volume for all groups was 5 mL/kg. […] Approximately 50 μL of venous blood were collected into heparin sodium anticoagulant tubes and placed on ice. The sample processing and storage methods were the same as described previously.
Subsequently, the resultant mixture was vortexed for 1 minute and centrifuged at 4 °C for 10 min at 18,800× g. […] The lowest limit of quantification (LLOQ) was established at 2 ng/mL.
Kromasil 100-5-C8 (2.1 × 50 mm) was selected for the separation of samples. The mobile phase consisted of solvent A (water with 0.1% formic acid and 5 mM ammonium acetate) and solvent B (methanol with 0.1% formic acid). […] The column temperature was set at 40 °C. The two eluents were 0.1% formic acid and 5 mM ammonium acetate in water (A) and 0.1% formic acid in methanol (B). […] The main mass spectrometry detection parameters were: dry gas 10 L/min, heated gas 10 L/min, collision gas 270 kPa, ion source temperature 300 °C, desolvation temperature 250 °C, and heating module temperature 400 °C.
Pharmacokinetic parameters: GraphPad Prism 10.1 software was utilized to draw the curves. Noncompartmental analysis was selected to calculate the major PK parameters, including clearance (CL), volume (V), half-life (t1/2), peak concentration (Cmax), and area under the curve (AUC), using WinNonlin 8.1.

COc1cc2c(CCNC(C)=O)c[nH]c2cc1O [6-HMT, 6-Hydroxymelatonin]
AUC(0–t) ([1]; MT + CBD (3 + 3) mg/kg): 192.4 (72.83) h × ng/mL | AUC(0–∞) ([1]; MT + CBD (3 + 3) mg/kg): 245.7 (69.0) h × ng/mL | Cmax ([1]; MT + CBD (3 + 3) mg/kg): 62.9 (18.18) ng/mL | MRT(0–t) ([1]; MT + CBD (3 + 3) mg/kg): 2.94 (0.83) h | Tmax ([1]; MT + CBD (3 + 3) mg/kg): 0.58 (0.20) h | t1/2 ([1]; MT + CBD (3 + 3) mg/kg): 4.11 (1.69) h | ratio of AUC(0–t),6-HMT to AUC(0–t),MT with CBD, as percent of MT alone ([1]; MT + CBD (3 + 3) mg/kg vs MT 3 mg/kg): 26% | AUC(0–t) ([1]; MT + Vehicle 3 mg/kg): 179.7 (36.31) h × ng/mL | AUC(0–∞) ([1]; MT + Vehicle 3 mg/kg): 202.1 (46.02) h × ng/mL | Cmax ([1]; MT + Vehicle 3 mg/kg): 74.80 (10.94) ng/mL | MRT(0–t) ([1]; MT + Vehicle 3 mg/kg): 3.60 (0.81) h | Tmax ([1]; MT + Vehicle 3 mg/kg): 0.29 (0.10) h | t1/2 ([1]; MT + Vehicle 3 mg/kg): 3.33 (1.11) h | AUC(0–t) ([2]; i.v., MT + CBD (1 + 1) mg/kg): 33.63 (5.10) h × ng/mL | MRT(0–t) ([2]; i.v., MT + CBD (1 + 1) mg/kg): 0.38 (0.06) h | t1/2 ([2]; i.v., MT + CBD (1 + 1) mg/kg): 0.28 (0.04) h | AUC(0–1h) ([2]; p.o., MT + CBD (5 + 5) mg/kg): 77.02 (26.81) h × ng/mL | AUC(0–t) ([2]; p.o., MT + CBD (5 + 5) mg/kg): 110.2 (39.21) h × ng/mL | Cmax ([2]; p.o., MT + CBD (5 + 5) mg/kg): 125.1 (33.41) ng/mL | MRT(0–t) ([2]; p.o., MT + CBD (5 + 5) mg/kg): 0.88 (0.11) h | Tmax ([2]; p.o., MT + CBD (5 + 5) mg/kg): 0.33 (0.13) h | t1/2 ([2]; p.o., MT + CBD (5 + 5) mg/kg): 1.72 (1.48) h | AUC(0–1h) ([2]; p.o., MT + CBD (5 + 20) mg/kg): 48.98 (8.27) ** h × ng/mL | AUC(0–t) ([2]; p.o., MT + CBD (5 + 20) mg/kg): 123.2 (15.77) h × ng/mL | Cmax ([2]; p.o., MT + CBD (5 + 20) mg/kg): 64.17 (10.40) ** ng/mL | MRT(0–t) ([2]; p.o., MT + CBD (5 + 20) mg/kg): 2.37 (0.38) ** h | Tmax ([2]; p.o., MT + CBD (5 + 20) mg/kg): 0.33 (0.20) h | t1/2 ([2]; p.o., MT + CBD (5 + 20) mg/kg): 3.41 (1.90) h | AUC(0–1h) ([2]; p.o., MT + Vehicle 5 mg/kg): 90.04 (26.46) h × ng/mL | AUC(0–t) ([2]; p.o., MT + Vehicle 5 mg/kg): 125.2 (21.64) h × ng/mL | Cmax ([2]; p.o., MT + Vehicle 5 mg/kg): 145.6 (40.82) ng/mL | MRT(0–t) ([2]; p.o., MT + Vehicle 5 mg/kg): 1.41 (0.59) h | Tmax ([2]; p.o., MT + Vehicle 5 mg/kg): 0.25 (0) h | t1/2 ([2]; p.o., MT + Vehicle 5 mg/kg): 1.56 (0.90) h | plasma concentration [3]: < 2 ng/mL
